Experimental findings from patent US8999384B2, “Immediate release compositions of acid labile drugs” (priority 2010, dated 2015) are described below.

A short description of the series: Acid neutralizing capacity of buffers: buffer added to basal SGF and titrated with excess 0.1N HCl for 1 hour. Format: physicochemical. As to conditions: for initial rise in pH: at the buffer quantity required to neutralize the SGF (quantity stated per buffer); for pH upon addition of excess acid for a period of 1 h: at the buffer quantity required to neutralize the SGF, 0.1N HCl at 0.5 ml/minute; for quantity of buffer required to neutralize the basal SGF: basal SGF: 9.6 ml of 0.1N HCl + 210 ml of water. As for the experimental part: A number of buffers, both soluble and insoluble, were tested for their acid neutralizing capacity. Based on their acid neutralizing capacity, buffers, both individual and combination, were evaluated for their behavior at the excess secretion of acid. The technique involved consists of adding an excess dose of the buffer to a sample of artificial gastric juice. […] The model was simulated in vitro and the buffer was added to the basal SGF medium containing 9.6 ml of 0.1N HCl+210 ml of water and titrated with excess acid (0.1N HCl) at the rate of 0.5 ml/minute for a period of 1 hour (total volume=250 ml). The buffer(s) which maintained a pH above 6.0 at the excess secretion of acid was selected.

As for `[Mg+2].[O-2]` [Heavy Magnesium oxide], the “initial rise in pH” value worked out at 7, the “pH upon addition of excess acid for a period of 1 h” value came to 7 and the “quantity of buffer required to neutralize the basal SGF” value is “About 80 mg”.
For the compound `NC(CO)(CO)CO` [Tromethamine], the “initial rise in pH” value is recorded as 8, the “pH upon addition of excess acid for a period of 1 h” value turned out to be 8 and the “quantity of buffer required to neutralize the basal SGF” value is recorded as “About 1000 mg”.
